≈ marks a conversion by molar mass, not a printed value. One block for each molecule: values may come before it. Calls of active or inactive are those of the source. The rule behind the calls is not given here. Where a SMILES comes first, the peptide text is derived from it. [ ]: non-standard residue; d: D form. The star is where a group is joined. Palmitoyl = CCCCCCCCCCCCCCCC(=O)*; Lauroyl = CCCCCCCCCCCC(=O)*
Columns and labels:
Aspergillus fumigatus [1] = assay: Antifungal activity against Aspergillus fumigatus CBS 144.89 by CLSI […] method; assay type: functional
[2] = Toxicity in human RBC assessed as hemolysis at 20 uM; assay type: cell-based, Erythrocyte; conditions: red blood cells (RBC), read-out: Activity
[3] = Toxicity in human RBC assessed as hemolysis at 50 uM; assay type: cell-based, Erythrocyte; conditions: red blood cells (RBC), read-out: Activity
Aspergillus fumigatus [4] = assay: Antifungal activity against DsRed-labeled Aspergillus fumigatus CBS 144.89 infected in immunocompromized C57BL/6 mouse assessed fungal hyphae degradation in lung at 1 mg/kg qd administered intratracheally for 4 days relative to untreated control; assay type: functional, organism-based; parameters: dose 1 mg/kg
Mus musculus [5] = assay: Toxicity in immunosuppressed C57BL/6 mouse assessed as macrophage infiltration in the airways at 1 to 4.5 mg/kg administered intratracheally on days 1, 4, 7 and 11 one day post infection; assay type: organism-based; parameters: dose 1-4.5 mg/kg, route endotracheal; conditions: in vivo, inhaled_or_intranasal
Mus musculus [6] = assay: Toxicity in immunosuppressed C57BL/6 mouse assessed as vasculitis at 1 to 4.5 mg/kg administered intratracheally on days 1, 4, 7 and 11 one day post infection; assay type: organism-based; parameters: dose 1-4.5 mg/kg, route endotracheal; conditions: in vivo, inhaled_or_intranasal
Mus musculus [7] = assay: Toxicity in immunosuppressed C57BL/6 mouse assessed as edema at 1 to 4.5 mg/kg administered intratracheally on days 1, 4, 7 and 11 one day post infection; assay type: organism-based; parameters: dose 1-4.5 mg/kg, route endotracheal; conditions: in vivo, inhaled_or_intranasal
Mus musculus [8] = assay: Toxicity to immunosuppressed C57BL/6 mouse assessed as airway infiltration of neutrophils at 1 to 4.5 mg/kg administered intratracheally on days 1, 4, 7 and 11 one day post infection; assay type: organism-based; parameters: dose 1-4.5 mg/kg, route endotracheal; conditions: in vivo, inhaled_or_intranasal
Mus musculus [9] = assay: Toxicity in immunosuppressed C57BL/6 mouse assessed as blood vessel formation at 1 to 4.5 mg/kg administered intratracheally on days 1, 4, 7 and 11 one day post infection; assay type: organism-based; parameters: dose 1-4.5 mg/kg, route endotracheal; conditions: in vivo, inhaled_or_intranasal
Mus musculus [10] = assay: Toxicity in immunosuppressed C57BL/6 mouse assessed as hemorrhages at 1 to 4.5 mg/kg administered intratracheally on days 1, 4, 7 and 11 one day post infection; assay type: organism-based; parameters: dose 1-4.5 mg/kg, route endotracheal; conditions: in vivo, inhaled_or_intranasal
Aspergillus fumigatus [11] = assay: Antifungal activity against Aspergillus fumigatus CBS 144.89 infected in immunosuppressed wild-type C57BL/6 mouse assessed as increase in survival rate at 1 mg/kg administered intratracheally as single dose one day postinfection measured after 14 days relative to untreated control; assay type: functional, organism-based; parameters: dose 1 mg/kg
Aspergillus fumigatus [12] = assay: Antifungal activity against Aspergillus fumigatus CBS 144.89 infected in immunosuppressed wild-type C57BL/6 mouse assessed as increase in survival rate at 1 mg/kg administered intratracheally for 4 days from the day of infection measured after 14 days relative to untreated control; assay type: functional, organism-based; parameters: dose 1 mg/kg
Aspergillus fumigatus [13] = assay: Antifungal activity against DsRed-labeled Aspergillus fumigatus CBS 144.89 infected in immunocompromized C57BL/6 mouse assessed fungal hyphae degradation in lung at 4.5 mg/kg qd administered intratracheally for 4 days relative to untreated control; assay type: functional, organism-based; parameters: dose 4.5 mg/kg
Aspergillus fumigatus [14] = assay: (§1) Antifungal activity against DsRed-labeled Aspergillus fumigatus CBS 144.89 infected in transgenic C57BL/6 Cx3cr1 gfp/+ mouse assessed as macrophages phygocytosed-fungal conidia at 4.5 mg/kg qd administered intratracheally for 4 days relative to untreated control; assay type: functional, organism-based; parameters: dose 4.5 mg/kg
Aspergillus fumigatus [15] = assay: Antifungal activity against Aspergillus fumigatus CBS 144.89 infected in immunosuppressed wild-type C57BL/6 mouse assessed as increase in survival rate at 4.5 mg/kg administered intratracheally as single dose one day postinfection measured after 14 days relative to untreated control; assay type: functional, organism-based; parameters: dose 4.5 mg/kg
Aspergillus fumigatus [16] = assay: Antifungal activity against Aspergillus fumigatus CBS 144.89 infected in immunosuppressed wild-type C57BL/6 mouse assessed as increase in survival rate at 4.5 mg/kg administered intratracheally for 4 days from the day of infection measured after 14 days relative to untreated control; assay type: functional, organism-based; parameters: dose 4.5 mg/kg
Aspergillus fumigatus [17] = assay: Antifungal activity against Aspergillus fumigatus CBS 144.89 infected in immunosuppressed wild-type C57BL/6 mouse assessed as clearance of fungal forms in lung at 4.5 mg/kg administered intratracheally on days 1, 4, 7 and 11 one day post infection measured after 21 days relative to untreated control; assay type: functional, organism-based; parameters: dose 4.5 mg/kg
Mus musculus [18] = assay: Toxicity in immunosuppressed C57BL/6 mouse assessed as mild multifocal interstitial plasmacytic infiltration at 4.5 mg/kg administered intratracheally on days 1, 4, 7 and 11 one day post infection; assay type: organism-based; parameters: dose 4.5 mg/kg, route endotracheal; conditions: in vivo, inhaled_or_intranasal
Mus musculus [19] = assay: Toxicity in immunosuppressed C57BL/6 mouse assessed as mild multifocal interstitial plasmacytic infiltration at 1 mg/kg administered intratracheally on days 1, 4, 7 and 11 one day post infection; assay type: organism-based; parameters: dose 1 mg/kg, route endotracheal; conditions: in vivo, inhaled_or_intranasal
Aspergillus fumigatus [20] = assay: Antifungal activity against Aspergillus fumigatus CBS 144.89 infected in immunosuppressed wild-type C57BL/6 mouse assessed as recovery from infection at 4.5 mg/kg administered intratracheally on days 1, 4, 7 and 11 one day post infection measured after 21 days relative to untreated control; assay type: functional; conditions: route endotracheal
Aspergillus fumigatus [21] = assay: Antifungal activity against Aspergillus fumigatus CBS 144.89 infected in immunosuppressed wild-type C57BL/6 mouse assessed as increase in survival rate at 4.5 mg/kg administered intratracheally on days 1, 4, 7 and 11 one day post infection measured after 21 days relative to untreated control; assay type: functional, organism-based; parameters: dose 4.5 mg/kg
Aspergillus fumigatus [22] = assay: as §1, with “gfp/+mouse” for “gfp/+ mouse”, “decrease in residual fungal spore colocalized with macrophage and dendritic cell” for “macrophages phygocytosed-fungal conidia”; assay type: functional, organism-based; parameters: dose 4.5 mg/kg
Aspergillus fumigatus [23] = assay: Antifungal activity against DsRed-labeled Aspergillus fumigatus CBS 144.89 infected in immunocompromized mouse assessed as macrophages phygocytosed-fungal conidia at 4.5 mg/kg qd administered intratracheally for 4 days relative to untreated control; assay type: functional, organism-based; parameters: dose 4.5 mg/kg
Aspergillus fumigatus [24] = assay: Antifungal activity against DsRed-labeled Aspergillus fumigatus CBS 144.89 infected in immunocompromized mouse assessed as decrease in residual fungal spore colocalized with macrophage and dendritic cell at 4.5 mg/kg qd administered intratracheally for 4 days relative to untreated control; assay type: functional, organism-based; parameters: dose 4.5 mg/kg

SMILES: C[C@@H]1[C@H](O)[C@@H](C)/C=C/C=C/C=C/C=C/C=C/C=C/C=C/[C@H](O[C@@H]2O[C@H](C)[C@@H](O)[C@H](N)[C@@H]2O)C[C@@H]2O[C@](O)(C[C@@H](O)C[C@@H](O)[C@H](O)CC[C@@H](O)C[C@@H](O)CC(=O)O[C@H]1C)C[C@H](O)[C@H]2C(=O)O [AMPHOTERICIN B]
MIC (Aspergillus fumigatus [1]): 11.5 µg/mL (≈ 12.4 µM)
Activity (Aspergillus fumigatus [4]): inactive
Activity (Mus musculus [5]): Toxic
Activity (Mus musculus [6]): Toxic
Activity (Mus musculus [7]): Toxic
Activity (Mus musculus [8]): Toxic
Activity (Mus musculus [9]): Toxic
Activity (Mus musculus [10]): Toxic
Activity (Aspergillus fumigatus [11]): inactive
Activity (Aspergillus fumigatus [12]): inactive

SMILES: CCCCCCCCCCCC(=O)N[C@@H](CC(=O)O)C(=O)N[C@@H](CC(C)C)C(=O)N[C@@H](CCCCN)C(=O)N[C@@H](CCCCN)C(=O)N[C@@H](CC(C)C)C(=O)N[C@@H](CC(C)C)C(=O)N[C@@H](CCCCN)C(=O)N[C@@H](CCCCN)C(=O)N[C@@H](CC(C)C)C(=O)N[C@@H](CC(C)C)C(=O)N[C@@H](CCCCN)C(=O)N[C@@H](CCCCN)C(=O)N[C@@H](CC(C)C)C(=O)O (Lauroyl-DLKKLLKKLLKKL-OH)
MIC (Aspergillus fumigatus [1]): 20.8 µg/mL (≈ 11.8 µM)
hemolysis at 20 µM [2]: 0%
hemolysis at 50 µM [3]: 0%
Activity (Aspergillus fumigatus [13]): Active

SMILES: CCCCCCCCCCCCCCCC(=O)N[C@@H](CCCCN)C(=O)N[C@@H](CCCCN)C(=O)N[C@H](CCCCN)C(=O)N[C@@H](CCCCN)C(=O)O (Palmitoyl-KK[dK]K-OH)
MIC (Aspergillus fumigatus [1]): 38.4 µg/mL (≈ 49.9 µM)
hemolysis at 20 µM [2]: 0%
hemolysis at 50 µM [3]: 6%

Continued, in another order:

MIC (Aspergillus fumigatus [1]): 2 µg/mL (≈ 2.71 µM)
SMILES: CCCCCCCCCCCCCCCC(=O)N[C@@H](CCCCN)C(=O)N[C@@H](CC(C)C)C(=O)N[C@H](CC(C)C)C(=O)N[C@@H](CCCCN)C(=O)O
hemolysis at 20 µM [2]: 9%
hemolysis at 50 µM [3]: 45%

MIC (Aspergillus fumigatus [1]): 34 µg/mL (≈ 49.8 µM)
SMILES: CCCCCCCCCCCC(=O)N[C@@H](CCCCN)C(=O)N[C@@H](CC(C)C)C(=O)N[C@H](CC(C)C)C(=O)N[C@@H](CCCCN)C(=O)O (Lauroyl-KL[dL]K-OH)
hemolysis at 20 µM [2]: 0%
hemolysis at 50 µM [3]: 0%

MIC (Aspergillus fumigatus [1]): 8 µg/mL (≈ 12.2 µM)
SMILES: CCCCCCCCCCCCCCCC(=O)N[C@@H](CCCCN)C(=O)N[C@@H](C)C(=O)N[C@H](C)C(=O)N[C@@H](CCCCN)C(=O)O (Palmitoyl-KA[dA]K-OH)
hemolysis at 20 µM [2]: 0%
hemolysis at 50 µM [3]: 3%
Activity (Aspergillus fumigatus [13]): Active
Activity (Aspergillus fumigatus [14]): Active
Activity (Aspergillus fumigatus [15]): Active
Activity (Aspergillus fumigatus [16]): Active
Activity (Aspergillus fumigatus [17]): Active
Activity (Mus musculus [18]): Toxic
Activity (Mus musculus [19]): Toxic
Activity (Aspergillus fumigatus [20]): 25%
Activity (Aspergillus fumigatus [21]): Active
Activity (Aspergillus fumigatus [22]): Active
Activity (Aspergillus fumigatus [23]): Active
Activity (Aspergillus fumigatus [24]): Active

MIC (Aspergillus fumigatus [1]): 9 µg/mL (≈ 12.7 µM)
SMILES: CCCCCCCCCCCCCC(=O)N[C@@H](CCCCN)C(=O)N[C@@H](CC(C)C)C(=O)N[C@H](CC(C)C)C(=O)N[C@@H](CCCCN)C(=O)O
hemolysis at 20 µM [2]: 13%
hemolysis at 50 µM [3]: 50%

Source: ChEMBL document CHEMBL1671621, “Efficient clearance of Aspergillus fumigatus in murine lungs by an ultrashort antimicrobial lipopeptide, palmitoyl-lys-ala-DAla-lys” (Antimicrob Agents Chemother, 2008)
